Laboratory results as given in patent US6737383B1, “Herbicidal oxadiazolidines” (priority 1999, dated 2004).

Key:
crabgrass = experiment: Test B pre/postemergence crabgrass; type: in vivo, Digitaria sanguinalis
Summary of the method: (§1)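 Test chemicals in a non-phytotoxic solvent mixture with surfactant were sprayed preemergence onto planted seeds and postemergence onto plants 2 to 18 cm tall (1- to 4-leaf stage). After twelve to sixteen days in a greenhouse, injury was visually rated against untreated controls from 0 (no effect) to 10 (complete control).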

wheat = experiment: Test B pre/postemergence wheat; type: in vivo, Triticum aestivum
Summary of the method: as §1

sugar beet = experiment: Test B pre/postemergence sugar beet; type: in vivo, Beta vulgaris
Summary of the method: as §1

velvetleaf = experiment: Test B pre/postemergence velvetleaf; type: in vivo, Abutilon theophrasti
Summary of the method: as §1

morningglory = experiment: Test B pre/postemergence morningglory; type: in vivo, Ipomoea hederacea
Summary of the method: as §1

corn = experiment: Test B pre/postemergence corn; type: in vivo, Zea mays
Summary of the method: as §1

giant foxtail = experiment: Test B pre/postemergence giant foxtail; type: in vivo, Setaria faberii
Summary of the method: as §1

rape = experiment: Test B pre/postemergence rape; type: in vivo, Brassica napus
Summary of the method: as §1

wild oat = experiment: Test B pre/postemergence wild oat; type: in vivo, Avena fatua
Summary of the method: as §1

cocklebur = experiment: Test B pre/postemergence cocklebur; type: in vivo, Xanthium strumarium
Summary of the method: as §1

surinam grass = experiment: Test B pre/postemergence surinam grass; type: in vivo, Brachiaria decumbens
Summary of the method: as §1

blackgrass = experiment: Test B pre/postemergence blackgrass; type: in vivo, Alopecurus myosuroides
Summary of the method: as §1

bedstraw = experiment: Test B pre/postemergence bedstraw; type: in vivo, Galium aparine; conditions: Preemergence
Summary of the method: as §1

purple nutsedge = experiment: Test B pre/postemergence purple nutsedge; type: in vivo, Cyperus rotundus
Summary of the method: as §1

pigweed = experiment: Test B pre/postemergence pigweed; type: in vivo, Amaranthus retroflexus
Summary of the method: as §1

soybean = experiment: Test B pre/postemergence soybean; type: in vivo, Glycine max
Summary of the method: as §1

[1] = Postemergence, Rate 62 g/ha, scale of 0 to 10, 0 is no effect, 10 is complete control
[2] = Postemergence, Rate 125 g/ha, scale 0 to 10, 0 is no effect, 10 is complete control
[3] = Postemergence, Rate 250 g/ha, scale 0 to 10
[4] = Postemergence, Rate 500 g/ha, scale 0 to 10, 0 is no effect, 10 is complete control
[5] = Preemergence, Rate 125 g/ha, scale 0 to 10, 0 is no effect, 10 is complete control
[6] = Preemergence, Rate 500 g/ha, scale of 0 to 10 where 0 is no effect and 10 is complete control
[7] = Preemergence, Rate 62 g/ha, scale of 0 to 10 where 0 is no effect and 10 is complete control
[8] = Preemergence, Rate 250 g/ha, scale 0 to 10, 0 is no effect, 10 is complete control
[9] = Rate 62 g/ha, scale of 0 to 10 where 0 is no effect and 10 is complete control
[10] = Preemergence, Rate 125 g/ha, scale of 0 to 10 where 0 is no effect and 10 is complete control
[11] = Preemergence, Rate 250 g/ha, scale 0 (no effect) to 10 (complete control)
[12] = Rate 500 g/ha, Preemergence, scale 0 to 10 (0 no effect, 10 complete control)

With `COCCOCn1c(=O)on(C(=O)N(c2ccc(F)cc2F)C(C)C)c1=O` [Compound 505] the “Crabgrass plant response rating” value (crabgrass; [1]) was 7, the “Crabgrass plant response rating” value (crabgrass; [2]) was 7 and the “Crabgrass plant response rating” value (crabgrass; [3]) was 9. The “Plant response rating, Crabgrass” value (crabgrass; [4]) was 9, the “Crabgrass plant response rating” value (crabgrass; [5]) was 6 and the “Crabgrass plant response rating” value (crabgrass; [6]) was 8. For the same compound, the “Wheat plant response rating” value (wheat; [1]) was 0, the “Wheat plant response rating” value (wheat; [2]) was 2 and the “Plant response rating, Wheat” value (wheat; [4]) was 4. For the same compound, the “Plant response rating, Wheat” value (wheat; [7]) was 3, the “Wheat plant response rating” value (wheat; [5]) was 7 and the “Wheat plant response rating” value (wheat; [6]) was 8. For the same compound, the “Sugarbeets plant response rating” value (sugar beet; [1]) was 3, the “Sugarbeets plant response rating” value (sugar beet; [2]) was 5 and the “Plant response rating, Sugarbeets” value (sugar beet; [4]) was 9. The “Plant response rating, Sugarbeets” value (sugar beet; [7]) was 3, the “Sugarbeets plant response rating” value (sugar beet; [5]) was 3 and the “Sugarbeets plant response rating” value (sugar beet; [6]) was 8. The “Velvetleaf plant response rating” value (velvetleaf; [1]) was 0, the “Velvetleaf plant response rating” value (velvetleaf; [2]) was 0 and the “Plant response rating, Velvetleaf” value (velvetleaf; [4]) was 4. The “Plant response rating, Velvetleaf” value (velvetleaf; [7]) was 0, the “Velvetleaf plant response rating” value (velvetleaf; [5]) was 2 and the “Velvetleaf plant response rating” value (velvetleaf; [6]) was 10. For the same compound, the “Morningglory plant response rating” value (morningglory; [1]) was 5, the “Morningglory plant response rating” value (morningglory; [2]) was 5 and the “Plant response rating, Morningglory” value (morningglory; [4]) was 7. For the same compound, the “Plant response rating, Morningglory” value (morningglory; [7]) was 0, the “Morningglory plant response rating” value (morningglory; [5]) was 0 and the “Morningglory plant response rating” value (morningglory; [6]) was 3. For the same compound, the “Corn plant response rating” value (corn; [1]) was 0, the “Corn plant response rating” value (corn; [2]) was 3 and the “Corn plant response rating” value (corn; [3]) was 6. For the same compound, the “Plant response rating, Corn” value (corn; [4]) was 6, the “Plant response rating, Corn” value (corn; [7]) was 2 and the “Corn plant response rating” value (corn; [5]) was 2. For the same compound, the “Corn plant response rating” value (corn; [6]) was 6, the “Giant foxtail plant response rating” value (giant foxtail; [1]) was 8 and the “Giant foxtail plant response rating” value (giant foxtail; [2]) was 8. For the same compound, the “Plant response rating, Giant foxtail” value (giant foxtail; [4]) was 9, the “Plant response rating, Giant foxtail” value (giant foxtail; [7]) was 9 and the “Giant foxtail plant response rating” value (giant foxtail; [5]) was 9. For the same compound, the “Giant foxtail plant response rating” value (giant foxtail; [6]) was 10, the “Rape plant response rating” value (rape; [1]) was 0 and the “Rape plant response rating” value (rape; [2]) was 0. The “Plant response rating, Rape” value (rape; [4]) was 2, the “Plant response rating, Rape” value (rape; [7]) was 4 and the “Rape plant response rating” value (rape; [5]) was 4. The “Rape plant response rating” value (rape; [6]) was 9, the “Wild oats plant response rating” value (wild oat; [1]) was 0 and the “Wild oats plant response rating” value (wild oat; [2]) was 2. The “Plant response rating, Wild oats” value (wild oat; [4]) was 3, the “Plant response rating, Wild oats” value (wild oat; [7]) was 2 and the “Wild oats plant response rating” value (wild oat; [5]) was 2. For the same compound, the “Wild oats plant response rating” value (wild oat; [6]) was 9, the “Cocklebur plant response rating” value (cocklebur; [1]) was 0 and the “Cocklebur plant response rating” value (cocklebur; [2]) was 0. For the same compound, the “Cocklebur plant response rating” value (cocklebur; [3]) was 0, the “Plant response rating, Cocklebur” value (cocklebur; [4]) was 4 and the “Plant response rating, Cocklebur” value (cocklebur; [7]) was 0. For the same compound, the “Cocklebur plant response rating” value (cocklebur; [5]) was 0, the “Cocklebur plant response rating” value (cocklebur; [8]) was 0 and the “Cocklebur plant response rating” value (cocklebur; [6]) was 2. For the same compound, the “B. signalgrass plant response rating” value (surinam grass; [1]) was 0, the “B. signalgrass plant response rating” value (surinam grass; [2]) was 3 and the “B. signalgrass plant response rating” value (surinam grass; Postemergence, Rate 250 g/ha, scale 0 to 10, 0 no effect, 10 complete control) was 8. For the same compound, the “Plant response rating, B. signalgrass” value (surinam grass; [4]) was 8, the “Plant response rating, B. signalgrass” value (surinam grass; [7]) was 0 and the “B. signalgrass plant response rating” value (surinam grass; [8]) was 2. For the same compound, the “B. signalgrass plant response rating” value (surinam grass; Preemergence, Rate 500 g/ha, scale 0 to 10, 0 is no effect, 10 is complete control) was 6, the “Blackgrass plant response rating” value (blackgrass; [1]) was 2 and the “Blackgrass plant response rating” value (blackgrass; [2]) was 4. For the same compound, the “Blackgrass plant response rating” value (blackgrass; [3]) was 7, the “Plant response rating, Blackgrass” value (blackgrass; [4]) was 7 and the “Plant response rating, Blackgrass” value (blackgrass; [7]) was 0. The “Blackgrass plant response rating” value (blackgrass; [5]) was 6, the “Blackgrass plant response rating” value (blackgrass; [8]) was 7 and the “Blackgrass plant response rating” value (blackgrass; [6]) was 6. The “Plant response rating, Bedstraw” value (bedstraw; [9]) was 0, the “Bedstraw plant response rating” value (bedstraw; Rate 125 g/ha, scale 0 to 10, 0 is no effect, 10 is complete control) was 0 and the “Bedstraw plant response rating” value (bedstraw; Rate 250 g/ha, scale 0 to 10, 0 is no effect, 10 is complete control) was 8. For the same compound, the “Bedstraw plant response rating” value (bedstraw; Rate 500 g/ha, scale 0 to 10, 0 is no effect, 10 is complete control) was 9, the “Nutsedge plant response rating” value (purple nutsedge; [1]) was 0 and the “Nutsedge plant response rating” value (purple nutsedge; [2]) was 2. The “Plant response rating, Nutsedge” value (purple nutsedge; [4]) was 2, the “Plant response rating, Nutsedge” value (purple nutsedge; [7]) was 3 and the “Nutsedge plant response rating” value (purple nutsedge; [5]) was 10. For the same compound, the “Nutsedge plant response rating” value (purple nutsedge; [6]) was 8, the “Redroot pigweed plant response rating” value (pigweed; [1]) was 0 and the “Redroot pigweed plant response rating” value (pigweed; [2]) was 0. The “Plant response rating, Redroot pigweed” value (pigweed; [4]) was 9, the “Plant response rating, Redroot pigweed” value (pigweed; [7]) was 9 and the “Redroot pigweed plant response rating” value (pigweed; [5]) was 10. For the same compound, the “Redroot pigweed plant response rating” value (pigweed; [6]) was 10, the “Soybean plant response rating” value (soybean; [1]) was 1 and the “Soybean plant response rating” value (soybean; [2]) was 2. For the same compound, the “Plant response rating, Soybean” value (soybean; [4]) was 5, the “Plant response rating, Soybean” value (soybean; [7]) was 0 and the “Soybean plant response rating” value (soybean; [5]) was 0. For the same compound, the “Soybean plant response rating” value (soybean; [6]) was 5.

In the case of `CC(C)N(C(=O)n1oc(=O)n(C(C)C(=S)N(C)C)c1=O)c1ccc(Cl)cc1` (stereo not shown) [Compound 733], the “Crabgrass plant response rating” value (crabgrass; [7]) was 2, the “Plant response rating, Crabgrass” value (crabgrass; [10]) was 5 and the “Crabgrass plant response rating” value (crabgrass; [11]) was 9. For the same compound, the “Crabgrass plant response rating” value (crabgrass; [12]) was 9, the “Wheat plant response rating” value (wheat; [7]) was 0 and the “Plant response rating, Wheat” value (wheat; [10]) was 0. For the same compound, the “Wheat plant response rating” value (wheat; [11]) was 0, the “Wheat plant response rating” value (wheat; [12]) was 0 and the “Sugarbeets plant response rating” value (sugar beet; [7]) was 0. For the same compound, the “Plant response rating, Sugarbeets” value (sugar beet; [10]) was 0, the “Sugarbeets plant response rating” value (sugar beet; [11]) was 0 and the “Sugarbeets plant response rating” value (sugar beet; [12]) was 0. For the same compound, the “Velvetleaf plant response rating” value (velvetleaf; [7]) was 0, the “Plant response rating, Velvetleaf” value (velvetleaf; [10]) was 0 and the “Velvetleaf plant response rating” value (velvetleaf; [11]) was 0. The “Velvetleaf plant response rating” value (velvetleaf; [12]) was 1, the “Morningglory plant response rating” value (morningglory; [7]) was 1 and the “Plant response rating, Morningglory” value (morningglory; [10]) was 1. For the same compound, the “Morningglory plant response rating” value (morningglory; [11]) was 2, the “Morningglory plant response rating” value (morningglory; [12]) was 2 and the “Corn plant response rating” value (corn; [7]) was 0. For the same compound, the “Plant response rating, Corn” value (corn; [10]) was 0, the “Corn plant response rating” value (corn; [11]) was 0 and the “Corn plant response rating” value (corn; [12]) was 0. The “Giant foxtail plant response rating” value (giant foxtail; [7]) was 3, the “Plant response rating, Giant foxtail” value (giant foxtail; [10]) was 6 and the “Giant foxtail plant response rating” value (giant foxtail; [11]) was 9. The “Giant foxtail plant response rating” value (giant foxtail; [12]) was 9, the “Rape plant response rating” value (rape; [7]) was 0 and the “Plant response rating, Rape” value (rape; [10]) was 0. For the same compound, the “Rape plant response rating” value (rape; [11]) was 3, the “Rape plant response rating” value (rape; [12]) was 5 and the “Wild oats plant response rating” value (wild oat; [7]) was 2. The “Plant response rating, Wild oats” value (wild oat; [10]) was 2, the “Wild oats plant response rating” value (wild oat; [11]) was 2 and the “Wild oats plant response rating” value (wild oat; [12]) was 8. For the same compound, the “Cocklebur plant response rating” value (cocklebur; [7]) was 0, the “Plant response rating, Cocklebur” value (cocklebur; [10]) was 0 and the “Cocklebur plant response rating” value (cocklebur; [11]) was 0. The “Cocklebur plant response rating” value (cocklebur; [12]) was 0, the “B. signalgrass plant response rating” value (surinam grass; [7]) was 6 and the “Plant response rating, B. signalgrass” value (surinam grass; [10]) was 6. The “B. signalgrass plant response rating” value (surinam grass; [11]) was 8, the “B. signalgrass plant response rating” value (surinam grass; [12]) was 10 and the “Blackgrass plant response rating” value (blackgrass; [7]) was 4. The “Plant response rating, Blackgrass” value (blackgrass; [10]) was 7, the “Blackgrass plant response rating” value (blackgrass; [11]) was 8 and the “Blackgrass plant response rating” value (blackgrass; [12]) was 10. For the same compound, the “Bedstraw plant response rating” value (bedstraw; [9]) was 0, the “Plant response rating, Bedstraw” value (bedstraw; Rate 125 g/ha, scale of 0 to 10 where 0 is no effect and 10 is complete control) was 0 and the “Bedstraw plant response rating” value (bedstraw; Rate 250 g/ha, scale 0 (no effect) to 10 (complete control)) was 0. For the same compound, the “Bedstraw plant response rating” value (bedstraw; Rate 500 g/ha, scale 0 to 10 (0 no effect, 10 complete control)) was 0, the “Nutsedge plant response rating” value (purple nutsedge; [7]) was 0 and the “Plant response rating, Nutsedge” value (purple nutsedge; [10]) was 0. The “Nutsedge plant response rating” value (purple nutsedge; [11]) was 0, the “Redroot pigweed plant response rating” value (pigweed; [7]) was 0 and the “Plant response rating, Redroot pigweed” value (pigweed; [10]) was 0. The “Redroot pigweed plant response rating” value (pigweed; [11]) was 5, the “Redroot pigweed plant response rating” value (pigweed; [12]) was 7 and the “Soybean plant response rating” value (soybean; [7]) was 0. The “Plant response rating, Soybean” value (soybean; [10]) was 0, the “Soybean plant response rating” value (soybean; [11]) was 0 and the “Soybean plant response rating” value (soybean; [12]) was 0.
